Results as given in article PMC3341351, “Down-Regulation of GABAA Receptor via Promiscuity with the Vasoactive Peptide Urotensin II Receptor. Potential Involvement in Astrocyte Plasticity” (PLoS ONE, 2012).

Legend:
γ2^HA GABAAR subunit = experiment: Cell surface ELISA of γ2^HA GABAAR subunit in CHO-UT^c-myc-α2β3γ2^HA; type: cell-based; settings: hUII 10^−8 M, 30 min, 37°C, 5 to 7 independent experiments in triplicates
Procedure: Cells were plated at 50 000 cells/well in 96-well plates coated with 0.1 mg/ml poly-L-ornithine (Sigma-Aldrich). […] Cells were fixed with 4% PFA in PBS for 5 min at RT, washed in PBS, and then permeabilized in 0.05% triton X100 (only for permeabilized cells) and non specific binding were blocked with PBS containing 1% FBS for 30 min at RT. The first rat anti-HA monoclonal antibody (0.5 µg/ml, 3F10 clone, Roche, Meylan, France or 1 µg/ml, Santa-Cruz), mouse anti-c-myc monoclonal antibody (1.33 µg/ml, 9E10 clone, Roche), rabbit anti-UT antibody (1 µg/ml, Tebu, Santa-Cruz) or rabbit anti-β3 antibody (1∶200, Abcam, Paris, France), were added for 1 h30 at RT. Incubation with goat anti-rat (Thermo scientific, Fisher, Brebières, France), goat anti-mouse (Santa Cruz) or goat anti-rabbit (Tebu, Santa Cruz) conjugated alkaline phosphatase diluted at 1∶1000 in PBS/FBS was carried out for 30 min at RT. The cells were washed four times with PBS, a colorimetric alkaline phosphatase substrate was added (SuperSignal ELISA, Thermo scientific, Fisher) and the resulting color reaction was measured using a Viktor multilabel plate reader (PerkinElmer, Courtaboeuf, France). Background absorbance from samples transfected with non-tagged receptors or from cells without first antibodies were systematically measured. […] All experiments were done at least three times in triplicates.

[1] = target: T1, α2β3γ2 GABAAR co-expressed with human UT (Homo sapiens, UniProt Q9UKP6); experiment: Patch-clamp of Iso-evoked current in CHO-UT co-expressing α2β3γ2 GABAAR (CHO-UT-GABAAR); type: cell-based
T1 construct: expressed in transfected cells; host or cells: CHO-K1 stably expressing human UT (pIRES-neo2-UT), transiently nucleofected with GABAAR subunit cDNAs
T1 sequence (Q9UKP6 1-389): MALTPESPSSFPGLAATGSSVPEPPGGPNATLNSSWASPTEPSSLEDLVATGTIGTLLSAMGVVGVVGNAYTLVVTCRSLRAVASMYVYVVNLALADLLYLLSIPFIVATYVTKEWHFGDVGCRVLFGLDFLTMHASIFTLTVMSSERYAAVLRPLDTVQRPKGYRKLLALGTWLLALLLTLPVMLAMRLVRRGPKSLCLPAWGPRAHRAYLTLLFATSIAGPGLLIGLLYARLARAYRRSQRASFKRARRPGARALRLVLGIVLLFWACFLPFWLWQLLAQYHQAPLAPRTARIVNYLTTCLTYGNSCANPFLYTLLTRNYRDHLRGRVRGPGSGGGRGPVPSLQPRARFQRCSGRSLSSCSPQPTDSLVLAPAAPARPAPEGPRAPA
Procedure: CHO-K1 cell lines were obtained from American Type Culture Collection (Manassas, VA, USA). The human UT stable CHO (CHO-UT) was generously provided by Dr Christophe Dubessy (Inserm, Rouen University, France) et generated by CHO electroporation with 20 µg pIRES-neo2-UT DNA and 500 µg sterile sonicated salmon sperm DNA using the EasyJect One electroporation system (Equibio, Angleur, Belgium), followed by repetitive rounds of limiting dilution of cells in G-418 (400 µg/ml) for selection. Normal or stable CHO was grown in Ham-F12 medium supplemented with 10% FBS, 1% antibiotic-antimicotic solution and 2 mM glutamine, at 37°C in a humidified incubator with an atmosphere of 5% CO2. The stable CHO-UT medium was supplemented with the antibiotic G-418 (40 µg/ml).
For transfection, cells were trypsinized (0.05%), triturated in HamF-12 containing 10% FBS media, pelleted by centrifugation, resuspended in 100 µl solution V for nucleofection by an Amaxa Nucleofector Device (Köln, Germany; set to program U-016). Experiments were performed on normal CHO or on the stable CHO-UT cells and transiently transfected with combinations of cDNA encoding α2β3γ2, α2β3γ1, α2β1γ2, α2β3γ1, α2β3, β3γ2 (4 µg of cDNA total/transfection) GABAAR subunits. Cells were seeded on 14-mm poly-L-lysine-coated glass bottom insert dishes at 5×10^5 cells in a volume of 0.5 ml/dish. Cells were incubated overnight at 37°C in a humidified incubator (5% CO2) during 16 h before electrophysiological or immunocytochemical experiments.
GABAA receptor cDNA clones; α2, β1, β3, γ1 and γ2L engineered into the expression vector pCDM8 ([…], β1, γ2) or pcDNA/Amp (β3, γ1), were generously provided by Dr Wingrove (Merk Sharp and Dohme, Harlow, UK). To obtain β3 ^HA or γ2 ^HA epitope-tagged subunits, β3 or γ2 cDNA was amplified and the PCR product was subcloned using the SalI and NotI sites of pCMV-HA (Table S2) after digestion by the same restriction enzymes.
The conventional whole-cell configuration of the patch-clamp technique was used to study the GABA-gated currents in astrocytes and granule neurons, UT stably transfected CHO, CHO-UT, and CHO transiently transfected with diverse variants of UT and GABAAR subunits. After 24-h transfection, cell culture coverslips were placed in a small chamber (1.5 ml) on a stage of a right microscope DMLFSA (Leica, Heidelberg, Germany) and superfused continuously with the following bath solution containing (in mM): NaCl, 150; KCl, 2.5; HEPES, 5; CaCl2, 2; MgCl2, 1; glucose, 10 (pH 7.4 adjusted with NaOH). The patch pipettes were fabricated from 1.5 mm (outer diameter) soft glass tubes on a two-step vertical pipette puller (List-Medical, L/M-3P-A, Darmstadt, Germany). […] ATP and GTP were added to the internal solution used to fill electrode just before recording. All recordings were obtained at RT with cells voltage-clamped at −70 mV. The GABAA receptor agonist isoguvacine was prepared in the extracellular solution and was applied to cells by pneumatic pressure ejection. To prevent desenzitization, isoguvacine was more often ejected during 5 s at 2-min intervals. ATP, GTP, or guanosine 5′-O-(2-thiodiphosphate) (GDPβS) were administered through the patch pipette solution. We investigated the effect of competitive inhibition of GDP-GTP exchange by including GDPβS in the pipette solution (in addition to the normal amount of GTP). For GDPβS and the KIC, immediately following patch rupture, GABA current recordings were performed and the experiment was commenced after an equilibration period of 15 min.
All peptide ligands, inhibitors or allosteric modulators of the GABAA receptor function were applied via gravity through a plastic tubing positioned in the vicinity of the cell body in order to maintain a sustained perfusion. In these conditions, drugs could reach the cell of interest after 30 s of perfusion. Isoguvacine was applied focally by pneumatic pressure ejection from a micropipette.

Row | Compound | Loss of γ2^HA subunit from the cell surface (γ2^HA GABAAR subunit) | Apparent desensitization of Iso-evoked current ([1]; Iso 10^−4 M continuous ejection, control (Iso alone) or with hUII 10^−8 M) [%] | Chloride reversal potential (EqCl^−) ([1]; I–V relationship, Iso 10^−4 M without (control) or with hUII 10^−8 M) [mV] | Mean time constant of recovery from desensitization (50% receptors) ([1]; after long Iso exposure (30 s), control (Iso alone) or with hUII) [s]
1 | ETPDCFWKYCV (disulfide) [hUII, human urotensin II, synthesized by solid phase methodology] | approximately 40% | – | – | –
2 | O=C(O)C1=CCNCC1 [Iso, isoguvacine] | – | 59 | 4.84 | 16.2
